Results reported in US20240307338A1, “USE OF PHARMACEUTICAL COMPOSITION CONTAINING CHLOROGENIC ACID IN PREPARATION OF MEDICAMENT FOR TREATING PATHOLOGIC JAUNDICE” (SICHUAN JIUZHANG BIOLOGICAL SCIENCE AND TECHNOLOGY CO., LTD., priority 2021, published 2024).

Experiments:
Format in all cases: in vivo, SD rats
[1] = test system: rat model of hemolytic jaundice (acetylphenylhydrazine-induced); assay: Determination of total, direct and indirect bilirubin in rats with APH-induced hemolytic jaundice
Experimental: (§1) Clean adult male SD rats, weighing 200 g-250 g. The following experiment was carried out mainly by referring to the method described in CN104739818A. In short, in the example, acetylphenylhydrazine (APH) was used as a modeling drug to construct a rat model of hemolytic jaundice, which was also a commonly used model for studying neonatal hemolytic jaundice at home and abroad. The most prominent feature of hemolytic jaundice was the collapse of the patient's red blood cells, causing hemolysis. […] At the same time, due to the rupture of red blood cells and the release of bilirubin, liver function was damaged. The mechanism and symptoms simulated by APH were similar to those of hemolytic jaundice. From 60 healthy SD rats with required body weight, 10 rats were randomly selected as the normal control group, and the remaining 50 rats were intraperitoneally injected with acetylphenylhydrazine (APH) at a dose of 150 mg/kg for 3 consecutive days, to construct the animal model of hemolytic jaundice induced by oxidation of red blood cells. […] 50 rats successfully modeled were randomly divided into 5 groups, 10 rats for each group, and the groups were respectively named as: model control group (n=10), CGA group (n=10), bifidobacteria+HMO group (n=10), CGA+bifidobacteria+HMO low-dose group (n=10), CGA+bifidobacteria+HMO high-dose group (n=10), together with the normal control group (n=10), a total of 6 experimental groups, including 60 rats. In the experiment, rats in each group were administered by gavage, while the blank group and the model group were given the solvent physiological saline by gavage. The administration time is 6 days. The composition and dosage of therapeutic drugs for each group were as follows: • (1) CGA group: CGA 60 mg/kg/day, administered by gavage with physiological saline as solvent. • (2) bifidobacteria+HMO group: Bifidobacterium brevis M16-V (6 mg/kg/day), lacto-N-neotetraose (3 mg/kg/day), and 6′-sialyllactose (3 mg/kg/day). The mixture of the above components was prepared according to the weight ratio, and using physiological saline as the solvent, the solution of the mixture was administered by gavage. • (3) CGA+bifidobacteria+HMO low-dose group: CGA (60 mg/kg/day), Bifidobacterium brevis M16-V (6 mg/kg/day), lacto-N-neotetraose (3 mg/kg/day), and 6′-sialyllactose (3 mg/kg/day). […] In this example, the activity of ALT (alanine aminotransferase) and AST (aspartate aminotransferase) was determined by rate method, while α-GST was detected using α-GST (α-glutathione s-transferase) detection kit; • (2) The blood sample stored in step (1) was taken out, and then bilirubin and direct bilirubin were detected by using the total bilirubin detection kit and the direct bilirubin detection kit.

[2] = test system: rat model of hemolytic jaundice (acetylphenylhydrazine-induced); assay: Detection of glutathione (GSH) by ELISA in rats with APH-induced hemolytic jaundice; conditions: after 6 days of treatment, in words, compared with the model control group (data not shown)
Experimental: Clean adult male SD rats, weighing 200 g-250 g. The following experiment was carried out mainly by referring to the method described in CN104739818A. In short, in the example, acetylphenylhydrazine (APH) was used as a modeling drug to construct a rat model of hemolytic jaundice, which was also a commonly used model for studying neonatal hemolytic jaundice at home and abroad. The most prominent feature of hemolytic jaundice was the collapse of the patient's red blood cells, causing hemolysis. […] At the same time, due to the rupture of red blood cells and the release of bilirubin, liver function was damaged. The mechanism and symptoms simulated by APH were similar to those of hemolytic jaundice. From 60 healthy SD rats with required body weight, 10 rats were randomly selected as the normal control group, and the remaining 50 rats were intraperitoneally injected with acetylphenylhydrazine (APH) at a dose of 150 mg/kg for 3 consecutive days, to construct the animal model of hemolytic jaundice induced by oxidation of red blood cells. […] In order to explore the mechanism for the possible therapeutic effect of CGA, the GSH level of rats in each group was detected in this example. […]

[3] = test system: rat model of hemolytic jaundice (acetylphenylhydrazine-induced); assay: Activity assay of α-GST, ALT and AST in serum of rats with APH-induced hemolytic jaundice
Experimental: as §1

[4] = after 6 days of gavage, APH model rats, mean ± SD, n=10
[5] = after 6 days of treatment, in words, compared with the model control group
[6] = serum, after 6 days of gavage, APH model rats, mean ± SD, n=10

`O=C(/C=C/c1ccc(O)c(O)c1)O[C@@H]1C[C@](O)(C(=O)O)C[C@@H](O)[C@H]1O` [CGA, 3-O-caffeoylquinic acid] gave a Direct bilirubin [1, 4] of 1.86 ± 0.85 µmol/L, an Indirect bilirubin [1, 4] of 1.51 µmol/L and a Total bilirubin [1, 4] of 3.37 ± 0.93 µmol/L. For the same compound, the “levels of direct bilirubin, indirect bilirubin and total bilirubin” value [1, 5] was “significantly decreased”, the “content of GSH in serum” value [2] was “increased significantly” and the “levels of α-GST, ALT, and AST in serum” value [3, 5] was “significantly decreased”. For the same compound, the ALT [3, 6] was 26.5 ± 3.8 U/L, the AST [3, 6] was 29.8 ± 5.1 U/L and the α-GST [3, 6] was 20.9 ± 4.2.
